Assay results published in ChEMBL document CHEMBL2146454, “2,6-Naphthyridines as potent and selective inhibitors of the novel protein kinase C isozymes” (Bioorg Med Chem Lett, 2011).

What was measured:
[1] = target: Protein kinase C beta type (Homo sapiens, UniProt P05771); assay: Inhibition of recombinant human PKCbeta1 assessed as [33P]-ATP incorporation into tridecapeptide substrate after 60 mins by scintillation proximity assay
[2] = target: Protein kinase C alpha type (Homo sapiens, UniProt P17252); assay: Inhibition of recombinant human PKCalpha assessed as [33P]-ATP incorporation into tridecapeptide substrate after 60 mins by scintillation proximity assay
[3] = target: Protein kinase C theta type (Homo sapiens, UniProt Q04759); assay: Inhibition of recombinant human PKCtheta assessed as [33P]-ATP incorporation into tridecapeptide substrate after 60 mins by scintillation proximity assay
[4] = target: Protein kinase C eta type (Homo sapiens, UniProt P24723); assay: Inhibition of recombinant human PKCeta assessed as [33P]-ATP incorporation into tridecapeptide substrate after 60 mins by scintillation proximity assay
[5] = target: T1, Protein kinase C epsilon type (Homo sapiens, UniProt Q02156); assay: Inhibition of recombinant human PKCepsilon assessed as [33P]-ATP incorporation into tridecapeptide substrate after 60 mins by scintillation proximity assay
T1 sequence (Q02156 whole entry): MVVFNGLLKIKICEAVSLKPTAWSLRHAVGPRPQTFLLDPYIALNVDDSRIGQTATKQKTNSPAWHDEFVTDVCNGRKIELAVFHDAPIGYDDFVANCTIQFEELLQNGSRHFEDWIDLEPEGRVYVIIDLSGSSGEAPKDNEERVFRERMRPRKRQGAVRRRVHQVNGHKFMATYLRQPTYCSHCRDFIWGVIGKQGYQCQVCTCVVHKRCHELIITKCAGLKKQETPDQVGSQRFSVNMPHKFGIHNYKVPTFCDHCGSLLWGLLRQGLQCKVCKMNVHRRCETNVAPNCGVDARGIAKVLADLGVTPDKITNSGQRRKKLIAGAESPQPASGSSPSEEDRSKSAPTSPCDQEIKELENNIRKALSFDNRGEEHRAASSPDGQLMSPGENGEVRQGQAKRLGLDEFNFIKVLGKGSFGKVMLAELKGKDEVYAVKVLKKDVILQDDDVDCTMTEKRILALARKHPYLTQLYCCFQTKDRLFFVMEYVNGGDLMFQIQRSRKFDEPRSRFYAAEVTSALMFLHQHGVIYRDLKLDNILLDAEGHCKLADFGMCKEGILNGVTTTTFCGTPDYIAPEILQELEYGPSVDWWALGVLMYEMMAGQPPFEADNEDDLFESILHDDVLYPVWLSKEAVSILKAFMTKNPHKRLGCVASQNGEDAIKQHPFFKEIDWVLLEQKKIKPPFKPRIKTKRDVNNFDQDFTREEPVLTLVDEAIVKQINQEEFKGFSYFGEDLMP

[6] = target: Protein kinase C delta type (Homo sapiens, UniProt Q05655); assay: Inhibition of recombinant human PKCdelta assessed as [33P]-ATP incorporation into tridecapeptide substrate after 60 mins by scintillation proximity assay
[7] = Inhibition of antiCD3 and antiCD28 antibody-stimulated rat blood T lymphocyte proliferation incubated 1 hr before antibody challenge measured after 52 hrs by radioactive [3H]-thymidine incorporation assay; type: tissue-based; conditions: T-cell
[8] = Tmax in Lewis rat at 10 mg/kg, po; type: ADME, organism-based; parameters: dose 10 mg/kg, route oral; conditions: in vivo
[9] = Elimination half life in Lewis rat at 5 mg/kg, iv; type: ADME, organism-based; parameters: dose 5 mg/kg, route intravenous; conditions: in vivo, read-out: beta t1/2 (converted)
[10] = AUC (infinity) in Lewis rat at 10 mg/kg, po; type: ADME, organism-based; parameters: time infinity, dose 10 mg/kg, route oral; conditions: plasma
[11] = Plasma protein binding in human by rapid equilibrium dialysis method; type: ADME, cell-free; conditions: read-out: PPB (converted)
[12] = Lipophilicity, log P of the compound; type: physicochemical; conditions: octanol/water
[13] = Octanol-water distribution coefficient, log D of the compound at pH 6.8; type: physicochemical
Mus musculus [14] = organism: Mus musculus; assay: animal or person; type: functional; conditions: BALB/c, route oral
[15] = AUC (infinity) in Lewis rat at 5 mg/kg, iv; type: ADME, organism-based; parameters: dose 5 mg/kg, route intravenous, time infinity; conditions: plasma
[16] = Cmax in Lewis rat at 10 mg/kg, po; type: ADME, organism-based; parameters: dose 10 mg/kg, route oral; conditions: in vivo
[17] = Volume of distribution at steady state in Lewis rat at 5 mg/kg, iv; type: ADME, organism-based; parameters: dose 5 mg/kg, route intravenous; conditions: in vivo, read-out: Vdss
[18] = Oral bioavailability in Lewis rat at 10 mg/kg; type: ADME, organism-based; conditions: in vivo
[19] = Intrinsic aqueous solubility of the compound; type: physicochemical; conditions: read-out: Intrinsic_solubility
[20] = Clearance in Lewis rat at 5 mg/kg, iv; type: ADME, organism-based; parameters: dose 5 mg/kg, route intravenous; conditions: in vivo
[21] = Plasma protein binding in rat by rapid equilibrium dialysis method; type: ADME, cell-free; conditions: read-out: PPB (converted)
Mus musculus [22] = organism: Mus musculus; assay: animal or person; type: functional; conditions: BALB/c, route oral; remark: listed apart in the source
[23] = Dissociation constant, pKa of the compound; type: physicochemical

Protein kinase C beta type, sequence (P05771 whole entry): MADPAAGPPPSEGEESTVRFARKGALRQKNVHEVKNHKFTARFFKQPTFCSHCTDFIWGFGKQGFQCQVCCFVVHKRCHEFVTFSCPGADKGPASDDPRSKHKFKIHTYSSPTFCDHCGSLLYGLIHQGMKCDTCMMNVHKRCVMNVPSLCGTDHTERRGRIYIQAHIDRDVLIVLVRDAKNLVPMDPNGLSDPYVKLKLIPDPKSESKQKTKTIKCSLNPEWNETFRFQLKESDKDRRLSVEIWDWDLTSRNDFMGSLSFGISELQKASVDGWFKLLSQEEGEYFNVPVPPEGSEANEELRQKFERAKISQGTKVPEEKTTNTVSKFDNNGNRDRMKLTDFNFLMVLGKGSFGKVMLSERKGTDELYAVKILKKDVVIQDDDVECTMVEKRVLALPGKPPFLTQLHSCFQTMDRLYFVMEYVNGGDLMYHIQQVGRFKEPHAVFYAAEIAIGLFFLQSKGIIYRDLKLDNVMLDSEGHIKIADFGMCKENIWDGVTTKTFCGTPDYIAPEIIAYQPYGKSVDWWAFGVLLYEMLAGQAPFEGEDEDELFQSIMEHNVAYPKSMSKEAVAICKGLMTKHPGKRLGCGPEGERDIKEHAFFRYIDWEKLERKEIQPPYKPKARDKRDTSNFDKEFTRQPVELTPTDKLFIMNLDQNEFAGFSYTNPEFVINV
Protein kinase C theta type, sequence (Q04759 whole entry): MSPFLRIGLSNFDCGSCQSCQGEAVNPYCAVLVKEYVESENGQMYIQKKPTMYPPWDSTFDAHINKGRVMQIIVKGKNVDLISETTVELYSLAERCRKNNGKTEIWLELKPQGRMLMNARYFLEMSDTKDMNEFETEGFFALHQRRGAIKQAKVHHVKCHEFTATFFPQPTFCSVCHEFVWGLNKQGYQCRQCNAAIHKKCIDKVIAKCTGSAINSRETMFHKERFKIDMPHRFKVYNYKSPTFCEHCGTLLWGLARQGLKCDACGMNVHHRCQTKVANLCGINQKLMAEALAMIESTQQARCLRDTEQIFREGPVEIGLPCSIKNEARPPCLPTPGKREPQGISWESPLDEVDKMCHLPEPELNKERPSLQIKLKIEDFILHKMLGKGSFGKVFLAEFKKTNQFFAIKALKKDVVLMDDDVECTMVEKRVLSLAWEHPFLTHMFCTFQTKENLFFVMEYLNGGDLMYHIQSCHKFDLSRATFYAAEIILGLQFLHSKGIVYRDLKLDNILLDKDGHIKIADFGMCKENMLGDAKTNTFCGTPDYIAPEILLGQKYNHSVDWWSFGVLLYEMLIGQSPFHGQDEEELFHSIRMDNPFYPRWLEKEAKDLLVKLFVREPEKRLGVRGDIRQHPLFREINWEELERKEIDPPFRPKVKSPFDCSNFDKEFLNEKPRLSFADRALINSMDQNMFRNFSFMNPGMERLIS
Protein kinase C eta type, sequence (P24723 whole entry): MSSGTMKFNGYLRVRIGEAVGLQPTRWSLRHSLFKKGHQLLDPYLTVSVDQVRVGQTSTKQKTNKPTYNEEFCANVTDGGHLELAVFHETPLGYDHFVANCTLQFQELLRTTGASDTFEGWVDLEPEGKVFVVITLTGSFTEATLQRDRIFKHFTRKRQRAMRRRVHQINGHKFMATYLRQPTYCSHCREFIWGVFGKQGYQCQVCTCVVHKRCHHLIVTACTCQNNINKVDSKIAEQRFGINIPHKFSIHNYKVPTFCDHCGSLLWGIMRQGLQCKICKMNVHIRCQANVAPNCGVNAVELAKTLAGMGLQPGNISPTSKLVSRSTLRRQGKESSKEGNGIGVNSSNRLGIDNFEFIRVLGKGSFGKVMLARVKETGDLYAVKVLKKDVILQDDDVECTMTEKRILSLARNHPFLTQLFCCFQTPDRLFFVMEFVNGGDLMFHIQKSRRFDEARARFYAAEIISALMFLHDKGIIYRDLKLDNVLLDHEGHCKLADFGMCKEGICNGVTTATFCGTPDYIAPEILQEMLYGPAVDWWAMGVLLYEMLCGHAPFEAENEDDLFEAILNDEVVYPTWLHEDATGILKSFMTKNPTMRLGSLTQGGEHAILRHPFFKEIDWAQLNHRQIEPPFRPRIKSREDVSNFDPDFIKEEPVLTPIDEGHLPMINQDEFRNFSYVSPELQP
Protein kinase C delta type, sequence (Q05655 whole entry): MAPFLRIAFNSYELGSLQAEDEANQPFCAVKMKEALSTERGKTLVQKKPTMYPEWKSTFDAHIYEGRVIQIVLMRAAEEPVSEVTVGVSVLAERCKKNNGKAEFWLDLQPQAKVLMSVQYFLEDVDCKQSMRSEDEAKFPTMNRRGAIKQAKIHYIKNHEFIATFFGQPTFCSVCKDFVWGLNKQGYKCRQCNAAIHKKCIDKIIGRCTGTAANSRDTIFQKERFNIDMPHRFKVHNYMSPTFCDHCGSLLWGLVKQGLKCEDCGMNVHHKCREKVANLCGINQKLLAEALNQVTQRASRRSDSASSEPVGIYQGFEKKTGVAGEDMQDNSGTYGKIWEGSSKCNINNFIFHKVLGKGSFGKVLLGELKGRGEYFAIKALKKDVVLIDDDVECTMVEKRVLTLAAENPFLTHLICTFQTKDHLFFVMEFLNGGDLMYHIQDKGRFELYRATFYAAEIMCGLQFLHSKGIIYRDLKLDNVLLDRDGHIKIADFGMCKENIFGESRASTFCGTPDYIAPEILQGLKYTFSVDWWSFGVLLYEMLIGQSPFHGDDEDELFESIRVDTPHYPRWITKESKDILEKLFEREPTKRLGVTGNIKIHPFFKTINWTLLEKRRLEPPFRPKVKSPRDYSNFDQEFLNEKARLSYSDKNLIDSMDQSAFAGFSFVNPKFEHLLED

Compound | IC50 [1] [µM] | IC50 [2] [µM] | IC50 [3] [µM] | IC50 [4] [µM] | IC50 [5] [µM] | IC50 [6] [µM] | other results
NCCNc1nc(-c2ccncc2)cc2cnccc12 | 0.859 |  |  |  |  |  | 
c1cc(-c2cc3cnccc3c(N3CCNCC3)n2)ccn1 | 0.823 | > 1 | 0.109 | 0.006 | 0.008 |  | 
NCCNc1nc(-c2ccncc2)cc2ccccc12 | > 1 | > 1 | > 1 | 0.743 | 0.877 | > 1 | 
NCCNc1nc(-c2ccncc2)cc2ncccc12 | > 1 | > 1 | > 1 | 0.401 | 0.929 | > 1 | 
NCCNc1nc(-c2ccncc2)cc2ccncc12 | > 1 | > 1 | > 1 | > 1 | > 1 | > 1 | 
NCCNc1cc(-c2ccncc2)cc2cnccc12 | > 1 | > 1 | 0.355 | 0.054 | 0.044 | 0.157 | IC50 [7]: 1.04 µM
NCCNc1nc(-c2ccncc2)nc2cnccc12 | > 1 | > 1 | > 1 | 0.027 | 0.038 | 0.102 | 
NCCOc1nc(-c2ccncc2)cc2cnccc12 | > 1 | > 1 | 0.948 | 0.082 | 0.12 | 0.703 | 
C[C@H](N)CNc1nc(-c2ccncc2)cc2cnccc12 | 0.378 | 0.829 | 0.055 | 0.002 | 0.005 | 0.008 | Tmax [8]: 2 h; half-life [9]: 8.1 h; AUC(0-inf) [10]: 0.712 µg·h/mL; IC50 [7]: 0.138 µM; fraction unbound [11]: 0.42; logP [12]: 2.2; logD [13]: -0.3; inhibition in vivo at 100 mg/kg (Mus musculus [14]): 70%; AUC(0-inf) [15]: 1.77 µg·h/mL; Cmax [16]: 0.053 µg/mL; Vd [17]: 14 L/kg; bioavailability [18]: 20%; solubility [19]: > 0.4 mg/mL; clearance [20]: 2.94 L/h/kg; fraction unbound [21]: 0.37; inhibition in vivo at 50 mg/kg (Mus musculus [22]): 37%; pKa [23]: 9
NC(CNc1nc(-c2ccncc2)cc2cnccc12)Cc1ccccc1 (stereo not given) | > 1 | 0.818 | > 1 | 0.452 | 0.403 | 0.932 | 
CN(CCN)c1nc(-c2ccncc2)cc2cnccc12 | > 1 | > 1 | 0.35 | 0.034 | 0.024 | 0.371 | 
CNCCNc1nc(-c2ccncc2)cc2cnccc12 | > 1 | > 1 | 0.997 | 0.093 | 0.079 | 0.254 | 
c1cc(-c2cc3cnccc3c(N3CCCNCC3)n2)ccn1 | 0.661 | 0.433 | 0.077 | 0.004 | 0.007 | 0.063 | 
NC1CCCN(c2nc(-c3ccncc3)cc3cnccc23)C1 (stereo not given) | 0.865 | 0.771 | 0.132 | 0.013 | 0.008 | 0.214 | 
NCCCNc1nc(-c2ccncc2)cc2cnccc12 | 0.779 | 0.676 | 0.097 | 0.01 | 0.013 | 0.053 | 
OCCNc1nc(-c2ccncc2)cc2cnccc12 | > 1 | > 1 | 0.743 | 0.188 | 0.081 | 0.635 | 
O=C1CN(c2nc(-c3ccncc3)cc3cnccc23)CCN1 | > 1 | > 1 | > 1 | 0.735 | 0.802 | > 1 | 
CC(C)(N)CNc1nc(-c2cccnc2)cc2cnccc12 | > 1 | > 1 | > 1 | > 1 | > 1 | > 1 | 
CC(C)(N)CNc1nc(-c2ccnc(N)c2)cc2cnccc12 | > 1 | 0.378 | 0.496 | 0.06 | 0.147 | 0.294 | 
CC(C)Nc1cc(-c2cc3cnccc3c(NCC(C)(C)N)n2)ccn1 | > 1 | > 1 | > 1 | 0.862 | > 1 | > 1 | 
CC(C)(N)CNc1nc(-c2ccncc2F)cc2cnccc12 | 0.961 | > 1 | 0.14 | 0.018 | 0.062 | 0.124 | 
CC(C)(N)CNc1nc(-c2ccncc2Cl)cc2cnccc12 | > 1 | > 1 | 0.093 | 0.015 | 0.047 | 0.221 | 
Cc1cnccc1-c1cc2cnccc2c(NCC(C)(C)N)n1 | > 1 | > 1 | 0.738 | 0.052 | 0.133 | 0.386 | 
